Data from the supplement of paper PMC11061612.

Tests used:
A204 (Rhabdomyosarcoma) = assay: combination Emax (second highest fraction inhibited in the dose matrix, 72 h); higher = more inhibition; extreme values may be limits of the assay
In short: (§1)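 Cell lines in DMEM/F12 or RPMI with 10% FBS were plated in 1536-well plates, held 24 hours at 37°C, 5% CO2, then given two-drug dose matrices for 72 hours (DMSO typically 0.2%). Viability was read by CellTiter-Glo 2.0 luminescence and scaled as inhibition from 0 (vehicle wells) to 1 (blank wells). Combination Emax is the second-highest inhibition in the matrix; Bliss excess is observed combination effect minus expected EA + EB − EA·EB, EA and EB being single-agent effects.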

AU565 (Breast Carcinoma) = assay: as above
In short: as §1

[1] = tested on: CA46 (Burkitt's Lymphoma); assay: as above
In short: as §1

[2] = tested on: CAL-27 (Oral Cavity Carcinoma); assay: as above
In short: as §1

[3] = tested on: CESS (Acute Myeloid Leukemia); assay: as above
In short: as §1

[4] = tested on: DU-4475 (Breast Carcinoma); assay: as above
In short: as §1

[5] = tested on: G-402 (Other Solid Carcinomas); assay: as above
In short: as §1

[6] = tested on: GA-10 (Burkitt's Lymphoma); assay: as above
In short: as §1

[7] = tested on: HT55 (Colorectal Carcinoma); assay: as above
In short: as §1

[8] = tested on: JIMT-1 (Breast Carcinoma); assay: as above
In short: as §1

[9] = tested on: JVM-2 (B-Cell Non-Hodgkin's Lymphoma); assay: as above
In short: as §1

[10] = tested on: huH-1 (Hepatocellular Carcinoma); assay: as above
In short: as §1

769-P (Kidney Carcinoma) = assay: Bliss excess, mean over the matrix (fraction); higher = more synergy
In short: as §1

EB2 (Burkitt's Lymphoma) = assay: as above
In short: as §1

EW-7 (Ewing's Sarcoma) = assay: as above
In short: as §1

IM-9 (Non-Cancerous) = assay: as above
In short: as §1

[11] = tested on: JHH-2 (Hepatocellular Carcinoma); assay: as above
In short: as §1

[12] = tested on: KYSE-220 (Esophageal Squamous Cell Carcinoma); assay: as above
In short: as §1

[13] = tested on: NCI-H1703 (Squamous Cell Lung Carcinoma); assay: as above
In short: as §1
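Wherever Bliss excess, mean over the matrix is given: after 72 h of two-drug dosing.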

| SMILES | combination Emax (A204 (Rhabdomyosarcoma)) | combination Emax (AU565 (Breast Carcinoma)) | combination Emax [1] | combination Emax [2] | combination Emax [3] | combination Emax [4] | combination Emax [5] | combination Emax [6] | combination Emax [7] | combination Emax [8] | combination Emax [9] | combination Emax [10] | Bliss excess (769-P (Kidney Carcinoma)) | Bliss excess (EB2 (Burkitt's Lymphoma)) | Bliss excess (EW-7 (Ewing's Sarcoma)) | Bliss excess (IM-9 (Non-Cancerous)) | Bliss excess [11] | Bliss excess [12] | Bliss excess [13] |
| --- | --- | --- | --- | --- | --- | --- | --- | --- | --- | --- | --- | --- | --- | --- | --- | --- | --- | --- | --- |
| C[C@@H](c1ccc2nccn2c1)n1nnc2ncc(-c3cnn(C)c3)nc21 [Savolitinib] + CN(CC[C@H](CSC1=CC=CC=C1)NC2=C(C=C(C=C2)S(=O)(=O)NC(=O)C3=CC=C(C=C3)N4CCC(CC4)[C@H](C5=CC=CC=C5C6=CC=C(C=C6)Cl)O)S(=O)(=O)C(F)(F)F)CCO [AZD4320] (first compound max 1 µM, 7x7, partner max 1 µM) | 0.0836 | 0.182 | 0.0638 | 0.17 | 0.291 | 0.871 | 0.187 | 0.138 | 0.155 | 0.213 | 0.417 | 0.202 |  |  |  |  |  |  |  |
| N#Cc1cnc(Nc2cc(NC[C@H]3CNCCO3)c(C(F)(F)F)cn2)cn1 [SRA737] + C=CCn1c(=O)c2cnc(Nc3ccc(N4CCN(C)CC4)cc3)nc2n1-c1cccc(C(C)(C)O)n1 [AZD1775] (first compound max 10 µM, partner max 1 µM) |  |  |  |  |  |  |  |  |  |  |  |  | 0.0166 | 0.0335 | 0.0142 | 0.156 | -0.008 | 0.0983 | 0.0391 |
| COc1nnc2ccc(N3CCC(c4ccc(OCCN5CCN(C)C(=O)[C@H]5C)cc4)CC3)nn12 [AZD5153] + CN(CC[C@H](CSC1=CC=CC=C1)NC2=C(C=C(C=C2)S(=O)(=O)NC(=O)C3=CC=C(C=C3)N4CCC(CC4)[C@H](C5=CC=CC=C5C6=CC=C(C=C6)Cl)O)S(=O)(=O)C(F)(F)F)CCO [AZD4320] (first compound max 1 µM, 7x7, partner max 1 µM) | 0.464 | 0.386 | 0.598 | 0.608 | 0.841 | 1 | 0.846 | 0.672 | 0.519 | 0.384 | 0.866 | 0.354 |  |  |  |  |  |  |  |
| COc1cc2ncnc(Nc3ccc(F)c(Cl)c3)c2cc1OCCCN1CCOCC1 [Gefitinib] + CC(C)n1c(=O)n(C)c2cnc3cc(F)c(-c4ccc(OCCCN5CCCCC5)nc4)cc3c21 [AZD1390] (first compound max 10 µM, 7x7, partner max 0.3 µM) | 0.139 | 0.737 | 0.297 | 0.689 | 0.195 | 0.157 | 0.214 | 0.353 | 0.353 | 0.491 | 0.528 | 0.134 | -0.0722 | -0.0774 | -0.0416 | -0.0511 | -0.0446 | -0.0059 | 0.0012 |
| N#Cc1cnc(Nc2cc(NC[C@H]3CNCCO3)c(C(F)(F)F)cn2)cn1 [SRA737] + O=c1[nH]cc(F)c(=O)[nH]1 [5-Fluorouracil] (first compound max 10 µM, 7x7, partner max 20 µM) |  |  |  |  |  |  |  |  |  |  |  |  | -0.112 | -0.0038 | -0.0504 | 0.0007 | 0.0695 | -0.0134 | -0.0304 |
| Cc1cc2ncnn2cc1Nc1ncc2c(n1)n(C1CCOCC1)c(=O)n2C [AZD7648] + COc1cc([C@@H]2c3cc4c(cc3[C@@H](O[C@@H]3O[C@@H]5CO[C@@H](C)O[C@H]5[C@H](O)[C@H]3O)[C@H]3COC(=O)[C@H]23)OCO4)cc(OC)c1O [Etoposide] (first compound max 10 µM, 7x7, partner max 10 µM) |  |  |  |  |  |  |  |  |  |  |  |  | 0.0859 | 0.0495 | 0.0263 | 0.12 | -0.0132 | 0.066 | 0.0532 |
| CC(=O)c1c(C)c2cnc(Nc3ccc(N4CCNCC4)cn3)nc2n(C2CCCC2)c1=O [Palbociclib] + CN(CC[C@H](CSC1=CC=CC=C1)NC2=C(C=C(C=C2)S(=O)(=O)NC(=O)C3=CC=C(C=C3)N4CCC(CC4)[C@H](C5=CC=CC=C5C6=CC=C(C=C6)Cl)O)S(=O)(=O)C(F)(F)F)CCO [AZD4320] (first compound max 10 µM, 7x7, partner max 1 µM) | 0.377 | 0.227 | 0.336 | 0.162 | 0.906 | 0.943 | 0.781 | 0.95 | 0.498 | 0.257 | 0.829 | 0.31 |  |  |  |  |  |  |  |
